Results published in US12398121B2 (Nuvation Bio Inc., priority 2018, dated 2025).

Tests used:
Type in all cases: cell-based
PC-3 cells = assay: Cell proliferation assay (CellTiter Glo), PC-3; settings: Homo sapiens, PC-3, 168 h, read-out: PC-3 IC50
Procedure: (§1) IC50 values were calculated and graphed using the model “log(inhibitor) vs. response—Variable slope” included in GraphPad Prism 5 (San Diego, CA). The Ki values were further calculated using the equation below where [L] was the radioligand concentration (1 nM) using in this study. Kd value was 0.332 nM. Ki=IC50/(1+[L]/Kd) c. AR transactivation: Human AR cloned into a CMV vector backbone was used for the transactivation study. HEK-293 cells were plated at 80,000 cells per well of a 24 well plate in DME+5% csFBS. Twenty four hours later, the cells were transfected using Lipofectamine (Invitrogen, Carlsbad, CA) with 0.25 μg GRE-LUC, 0.01 μg CMV-LUC (renilla luciferase) and 25 ng of the AR in OPTIMEM medium. The cells were treated 24 hrs after transfection with various ligands (10^−12 to 10^−5 M final concentrations) and luciferase assay were performed 48 hours after transfection. Firefly values were normalized to renilla luciferase values and the values were represented as relative light units (RLU). Agonist and antagonist assays for the test article were performed in the absence and in the combination with 0.1 nM R1881, respectively. Data were represented as EC50 (for agonists) and IC50 (for antagonists) obtained from four parameter logistics curve. Cell culture and proliferation assays: LNCaP, PC-3, 22RV1, MCF-7, HT-29, and HCT-116 cells were procured from American Type Culture Collection (ATCC). Cells were cultured in medium recommended by the ATCC. Cell culture medium was obtained from Fisher scientific (Waltham, MA) and serum was obtained from Hyclone (San Angelo, TX).
(§2) Cells were plated at varying density in the respective growth medium in 96 well plates. 24 hr later, cells were treated, in triplicate or quadruplicate, with test articles prepared in a range of concentrations by series dilution of DMSO stock solutions in growth medium and incubated for three to seven days. The number of viable 22RV1 and HT-29 cells was measured using CellTiter Glo assay (CTG, Promega, Madison, WI) after three days of treatment. The other types of cancer cells were re-treated at three or four days and the number of viable cells was measured using CTG assay after a total treatment time of six or seven days. Cell viability data were plotted using GraphPad Prism (GraphPad Software, Inc., San Diego, CA). In addition, a nonlinear regression model with a sigmoidal dose response and variable slope within GraphPad Prism was used to calculate the IC50 value of individual test articles. Additional cell proliferation assays: Other cancer cell lines are tested in a cell proliferation assay. For example, SK-OV-3 or OVCAR3 ovarian cancer cells are tested. […] The number of viable cells is measured using CellTiter Glo assay (CTG, Promega, Madison, WI) or similar. […]

LNCaP cells = assay: Cell proliferation assay (CellTiter Glo), LNCaP; settings: Homo sapiens, 168 h, read-out: LNCaP IC50
Procedure: as §1
Cells were plated at varying density in the respective growth medium in 96 well plates. 24 hr later, cells were treated, in triplicate or quadruplicate, with test articles prepared in a range of concentrations by series dilution of DMSO stock solutions in growth medium and incubated for three to seven days. The number of viable 22RV1 and HT-29 cells was measured using CellTiter Glo assay (CTG, Promega, Madison, WI) after three days of treatment. The other types of cancer cells were re-treated at three or four days and the number of viable cells was measured using CTG assay after a total treatment time of six or seven days. Cell viability data were plotted using GraphPad Prism (GraphPad Software, Inc., San Diego, CA). In addition, a nonlinear regression model with a sigmoidal dose response and variable slope within GraphPad Prism was used to calculate the IC50 value of individual test articles. Additional cell proliferation assays: Other cancer cell lines are tested in a cell proliferation assay. For example, SK-OV-3 or OVCAR3 ovarian cancer cells are tested. Cells are cultured in medium recommended by the supplier (e.g., ATCC or JCRB Cell Bank), at 37° C. in a 5% CO2 environment. For the proliferation assay, cells are plated in the growth medium in 96 well plates. Seeding density is adjusted according to the cell type. 24 hr later, cells are treated, in triplicate or quadruplicate, with test articles prepared in a range of concentrations by series dilution of DMSO stock solutions in growth medium, and typically incubated for three to seven days, with test article-containing medium replaced after three or four days. The number of viable cells is measured using CellTiter Glo assay (CTG, Promega, Madison, WI) or similar. Cell viability data are plotted using GraphPad Prism (GraphPad Software, Inc., San Diego, CA). […]

HCT-116 cells = assay: Cell proliferation assay (CellTiter Glo), HCT-116; settings: Homo sapiens, HCT-116, 168 h, read-out: HCT-116 IC50
Procedure: as §1, §2

MCF-7 cells = assay: Cell proliferation assay (CellTiter Glo), MCF-7; settings: Homo sapiens, MCF7, 168 h; cell growth inhibition, six or seven days total treatment
Procedure: as §1
Cells were plated at varying density in the respective growth medium in 96 well plates. […] The number of viable 22RV1 and HT-29 cells was measured using CellTiter Glo assay (CTG, Promega, Madison, WI) after three days of treatment. The other types of cancer cells were re-treated at three or four days and the number of viable cells was measured using CTG assay after a total treatment time of six or seven days. […] The number of viable cells is measured using CellTiter Glo assay (CTG, Promega, Madison, WI) or similar. […]

Row | SMILES | IC50 (PC-3 cells) [nM] | IC50 (LNCaP cells) [nM] | IC50 (HCT-116 cells) [nM] | IC50 (MCF-7 cells) [nM]
1 | CC1(C)C(=O)N(c2ccc(C#N)c(C(F)(F)F)c2)C(=S)N1c1ccc(C(=O)NCCCCCC(=O)N2CCN(C(=O)c3cc(Cc4n[nH]c(=O)c5ccccc45)ccc3F)CC2)c(F)c1 [Compound 1.1, 4-(3-(4-cyano-3-(trifluoromethyl)phenyl)-5,5-dimethyl-4-oxo-2-thioxoimidazolidin-1-yl)-2-fluoro-N-(6-(4-(2-fluoro-5-((4-oxo-3,4-dihydrophthalazin-1-yl)methyl)benzoyl)piperazin-1-yl)-6-oxohexyl)benzamide] | 50 | 590 | 310 | 
2 | C[C@]12CCC(=O)C[C@@H]1CC[C@@H]1[C@@H]2CC[C@]2(C)[C@@H](OCCCCCC(=O)N3CCN(C(=O)c4cc(Cc5n[nH]c(=O)c6ccccc56)ccc4F)CC3)CC[C@@H]12 [Compound 1.2, 4-(3-(4-(6-(((5S,8R,9S,10S,13S,14S,17S)-10,13-dimethyl-3-oxohexadecahydro-1H-cyclopenta[a]phenanthren-17-yl)oxy)hexanoyl)piperazine-1-carbonyl)-4-fluorobenzyl)phthalazin-1(2H)-one] | 240 | 790 | 110 | 
3 | CN(CCCCCC(=O)N1CCN(C(=O)c2cc(Cc3n[nH]c(=O)c4ccccc34)ccc2F)CC1)CCOc1ccc(C(=O)c2c(-c3ccc(O)cc3)sc3cc(O)ccc23)cc1 [Compound 2.4, 4-(4-fluoro-3-(4-(6-((2-(4-(6-hydroxy-2-(4-hydroxyphenyl)benzo[b]thiophene-3-carbonyl)phenoxy)ethyl)(methyl)amino)hexanoyl)piperazine-1-carbonyl)benzyl)phthalazin-1(2H)-one] |  |  |  | 11000
4 | O=C(c1ccc(OCCN2CCN(C(=O)c3cc(Cc4n[nH]c(=O)c5ccccc45)ccc3F)CC2)cc1)c1c(-c2ccc(O)cc2)sc2cc(O)ccc12 [Compound 2.13, 4-(4-fluoro-3-(4-(2-(4-(6-hydroxy-2-(4-hydroxyphenyl)benzo[b]thiophene-3-carbonyl)phenoxy)ethyl)piperazine-1-carbonyl)benzyl)phthalazin-1(2H)-one] |  |  |  | 3600
5 | CCC(=C(c1ccc(O)cc1)c1ccc(OCCN2CCN(C(=O)c3cc(Cc4n[nH]c(=O)c5ccccc45)ccc3F)CC2)cc1)c1ccccc1 [Compound 2.14, 4-(4-fluoro-3-(4-(2-(4-(1-(4-hydroxyphenyl)-2-phenylbut-1-enyl)phenoxy)ethyl)piperazine-1-carbonyl)benzyl)pthalazin-1(2H)-one] |  |  |  | 9300
